The record followed here is PubChem BioAssay (NCI).

Some test systems named below: HOP-92 NSCLC; A549 NSCLC; KM20L2 colon; U251 CNS; M14 melanoma; UACC-62 melanoma; ACHN renal; SNB-78 CNS; SNB-19 CNS; HCT-116 colon.
What all share (assay): NCI tumour cell line growth inhibition, 48 h

Several values for one entry are separate records, joined by “and”; a condition that tells them apart may be missing. Equal values may be shown once.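 48-hour exposure; five concentrations; linearly interpolated endpoints. GI50 is the concentration that inhibits growth by half. TGI marks complete inhibition of growth.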 Some results are limits rather than exact numbers.

For `CN(/N=C/c1ccnc2ccccc12)c1ccc([N+](=O)[O-])cc1[N+](=O)[O-]`, the TGI in the assay with HOP-92 NSCLC, in the assay with A549 NSCLC, in the assay on KM20L2 colon, with U251 CNS, in the assay on M14 melanoma and with UACC-62 melanoma was greater than 100 µM throughout. In addition, the TGI in the assay with ACHN renal, with SNB-78 CNS and with SNB-19 CNS was greater than 100 µM each time.

As to `CC(=O)OCC(OC(C)=O)C(OC(C)=O)C(OC(C)=O)C(=O)CNn1c(-c2ccccc2)nc2ccc(Br)cc2c1=O` (configuration not stated), the TGI in the assay on A549 NSCLC, in the assay on HCT-116 colon, in the assay with KM20L2 colon, in the assay with U251 CNS, in the assay with M14 melanoma and with UACC-62 melanoma was greater than 100 µM each time. The TGI with ACHN renal, in the assay on SNB-78 CNS and in the assay with SNB-19 CNS was greater than 100 µM each time.

In the case of `CC(C)CC(CNC(Cc1ccc(Cl)cc1)C(N)=O)NC(=O)C(Cc1cnc[nH]1)NC(=O)CNC(=O)C(NC(=O)C(C)NC(=O)C(Cc1c[nH]c2ccccc12)NC(=O)C(CCC(=O)O)NC(=O)C(N)Cc1ccccc1)C(C)C` (configuration not stated), the TGI is less than 0.0133 µM in the assay with HOP-92 NSCLC; greater than 133 µM with A549 NSCLC; greater than 133 µM in the assay on HCT-116 colon; greater than 133 µM with KM20L2 colon; greater than 133 µM with U251 CNS; greater than 133 µM in the assay on UACC-62 melanoma. Further, the TGI in the assay on ACHN renal, with SNB-78 CNS and in the assay with SNB-19 CNS was greater than 133 µM throughout.

`COc1ccc(/C(Cl)=C(\C=O)c2ccc(Br)cc2)cc1OC`: the TGI is 72.6 µM in the assay on HOP-92 NSCLC; greater than 100 µM in the assay with A549 NSCLC; greater than 100 µM with KM20L2 colon; greater than 100 µM with U251 CNS; greater than 100 µM in the assay on M14 melanoma; greater than 100 µM with UACC-62 melanoma. Further, the TGI with ACHN renal, in the assay on SNB-78 CNS and with SNB-19 CNS was greater than 100 µM each time.

In the case of `O=C(O)c1ccc(N=Nc2cc(S(=O)(=O)O)c3cccnc3c2O)cc1`, the TGI with HOP-92 NSCLC, in the assay with A549 NSCLC, in the assay on HCT-116 colon, in the assay on KM20L2 colon, in the assay on U251 CNS and with ACHN renal was greater than 100 µM in each case. For the same compound, the TGI with SNB-78 CNS and in the assay with SNB-19 CNS was greater than 100 µM each time.

On to `O=C1C=CN(C2OC(CO)C(O)C2O)C(=O)C1` (configuration not stated), for which the GI50 was 13.6 µM and 66.2 µM in the assay on HOP-92 NSCLC; 28.9 µM in the assay on A549 NSCLC; 2.54 µM in the assay on HCT-116 colon; 19.9 µM in the assay with KM20L2 colon; 298 µM and 289 µM with U251 CNS; 33.3 µM in the assay on UACC-62 melanoma. Moreover, in the assay on SNB-19 CNS, the GI50 was > 625 µM and 819 µM. In addition, the TGI with A549 NSCLC is 625 µM and > 2500 µM; with HCT-116 colon, 625 µM and > 2500 µM; in the assay with KM20L2 colon, 625 µM and > 1160 µM; in the assay with U251 CNS, 625 µM and > 2500 µM; in the assay with M14 melanoma it was greater than 2500 µM; with UACC-62 melanoma it was 625 µM and > 1840 µM. For the same compound, the TGI in the assay on ACHN renal and in the assay on SNB-19 CNS was greater than 2500 µM each time.

Regarding `C[C@H]1COC2(c3ccccc3)CCC(=O)N12` (some centres not stated), the TGI in the assay with HOP-92 NSCLC, with A549 NSCLC, in the assay with HCT-116 colon, with KM20L2 colon, in the assay with U251 CNS and in the assay with UACC-62 melanoma was greater than 100 µM each time. The TGI with ACHN renal, in the assay with SNB-78 CNS and with SNB-19 CNS was greater than 100 µM in each case.

With `CCc1ccccc1-n1c2nc(=O)n(C)c(=O)c-2nc2ccccc21`, the TGI turned out to be 27.6 µM with A549 NSCLC; 25.8 µM with HCT-116 colon; 32.8 µM with U251 CNS; 20.8 µM with M14 melanoma; 5.15 µM with UACC-62 melanoma; 16.3 µM in the assay on ACHN renal. Further, the results for the TGI in the assay with SNB-78 CNS and in the assay with SNB-19 CNS were 38.5 µM and 23.5 µM, respectively.

Take `Cc1cccc2c1Oc1cc(Cl)ccc1C2NC(=O)CN(C)C` (configuration not stated): the TGI with A549 NSCLC was greater than 100 µM; with HCT-116 colon it was greater than 100 µM; with KM20L2 colon, 41.2 µM; in the assay with M14 melanoma it was 51.8 µM; with UACC-62 melanoma it was 70 µM; in the assay with ACHN renal, greater than 100 µM. Moreover, the TGI in the assay with SNB-78 CNS and in the assay with SNB-19 CNS was greater than 100 µM each time.

For the compound `CCCCCC(=O)OCC(=O)O[C@@H]1C[C@]2(C(C)C)O[C@@]1(C)[C@@H]1CC[C@@H](C)[C@H]1[C@@H]2OC(=O)/C=C/c1ccccc1`, the GI50 with HOP-92 NSCLC is 12.8 µM; with A549 NSCLC, greater than 60.3 µM; in the assay with HCT-116 colon it was 32.2 µM; in the assay with U251 CNS, greater than 53.1 µM; in the assay on M14 melanoma, greater than 53.4 µM; with UACC-62 melanoma, greater than 53.8 µM. Besides, the GI50 in the assay on ACHN renal was 0.0387 µM; with SNB-19 CNS, greater than 75.3 µM. Also, the TGI with HOP-92 NSCLC was greater than 74.5 µM; with A549 NSCLC it was greater than 100 µM; in the assay on HCT-116 colon, greater than 100 µM; in the assay with U251 CNS, greater than 100 µM; in the assay with M14 melanoma, greater than 100 µM; in the assay with UACC-62 melanoma, greater than 100 µM. The TGI in the assay on ACHN renal was 10.1 µM; in the assay with SNB-19 CNS, greater than 100 µM.

For the compound `O=C(O)C(Br)C(Br)c1ccccc1[N+](=O)[O-]` (configuration not stated), the TGI in the assay on HOP-92 NSCLC, in the assay with A549 NSCLC, with HCT-116 colon, in the assay with U251 CNS, in the assay with M14 melanoma and with UACC-62 melanoma was greater than 100 µM in each case. The TGI in the assay with ACHN renal and in the assay on SNB-19 CNS was greater than 100 µM in each case.

As to `O=C1NC(=O)C2(CCC(O)C2)c2cc[n+]([O-])cc21` (configuration not stated), the TGI in the assay with HOP-92 NSCLC, in the assay on A549 NSCLC, in the assay on HCT-116 colon, in the assay on U251 CNS, in the assay with M14 melanoma and in the assay on UACC-62 melanoma was greater than 100 µM in each case. In addition, the TGI in the assay with ACHN renal and with SNB-19 CNS was greater than 100 µM throughout.

As for `CC1CCC2C(C)C3C(CC4C5CC=C6CC(OC7OC(CO)C(O)C(OC8OC(CO)C(O)C(O)C8O)C7OC7OC(C)C(O)C(O)C7O)CCC6(C)C5CCC43C)N2C1` (configuration not stated), the GI50 with HOP-92 NSCLC, with A549 NSCLC, with HCT-116 colon, with U251 CNS, in the assay on M14 melanoma and with UACC-62 melanoma was greater than 2.5 µg/mL each time. Further, the GI50 in the assay with ACHN renal and in the assay on SNB-19 CNS was greater than 2.5 µg/mL each time. Further, the TGI is 33.6 µM and > 2.5 µg/mL in the assay with HOP-92 NSCLC; 16.7 µM and > 2.5 µg/mL in the assay with A549 NSCLC; 24.5 µM and > 2.5 µg/mL with HCT-116 colon; 31.1 µM and > 2.5 µg/mL in the assay with U251 CNS; 9.84 µM and > 2.5 µg/mL in the assay with M14 melanoma; 27.7 µM and > 2.5 µg/mL in the assay with UACC-62 melanoma. Besides, the TGI in the assay on ACHN renal is 20.3 µM and > 2.5 µg/mL; with SNB-19 CNS it was 23.8 µM and > 2.5 µg/mL.
